# Source: patent publication US9063046B1, “Hand-held device with reagents and method for detection and diagnostics” (priority 2012, dated 2015)
# How the values were obtained:
# spores of B. atrophaeus = format: cell-based, Bacillus atrophaeus
# VACV = tested on: VACV; parameters: species or system Vaccinia virus
# B. atrophaeus endospores = tested on: B. atrophaeus endospores; parameters: species or system Bacillus atrophaeus
# P. aeruginosa = tested on: P. aeruginosa; parameters: species or system Pseudomonas aeruginosa
# Pixuna virus (PIXV) = format: cell-based; conditions: screening, FIG. 1; guanidium thiocyanate at 3.5 M
compound,measurement,setting,value
O=CCCCC=O [glutaraldehyde],killing / inactivating effect on spores,spores of B. atrophaeus,did not completely kill all of the spores
OO [hydrogen peroxide],killing / inactivating effect on spores,spores of B. atrophaeus,did not completely kill all of the spores
CC(=O)OO [peracetic acid],"ELISA sensitivity for VACV, of untreated controls",VACV,~50%
cupric ascorbate,"ELISA sensitivity for spores, of untreated controls",B. atrophaeus endospores,80-90%
same,"ELISA sensitivity for vegetative bacteria, of untreated controls",P. aeruginosa,80-90%
"N#CS.N=C(N)N [Guanidium thiocyanate, guanidium thiocyanate]",killing / inactivating effect on spores,spores of B. atrophaeus,little inactivating effect
same,inactivating effect on PIXV,Pixuna virus (PIXV),little inactivating effect
